According to ChEMBL document CHEMBL1201862, “PubChem BioAssay data set” (2004):
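Step 1: Grow cells in 96-well plates. Step 2: Expose to compound for 48 hours at 5 concentrations. Step 3: Interpolate endpoints linearly; if unreached, use highest concentration. Abbreviation: GI50, concentration required for 50% inhibition of growth.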 The source made the active and inactive calls. Cut-off read from the data, not from the text of the source: active = GI50 up to about 1.1 µM and inactive = higher.

How the values were obtained:
Assay in all cases: NCI tumour cell line growth inhibition, 48 h
HOP-92 = test system: HOP-92
HT-29 = test system: HT-29
Malme-3M = test system: Malme-3M
MCF7 = test system: MCF7
NCI-H522 = test system: NCI-H522
SF-268 = test system: SF-268
786-0 = test system: 786-0
UO-31 = test system: UO-31
SF-295 = test system: SF-295
SK-OV-3 = test system: SK-OV-3
UACC-62 = test system: UACC-62
MDA-MB-231 = test system: MDA-MB-231
SK-MEL-28 = test system: SK-MEL-28
EKVX = test system: EKVX
NCI-H226 = test system: NCI-H226
NCI/ADR-RES = test system: NCI/ADR-RES
SK-MEL-5 = test system: SK-MEL-5
SNB-19 = test system: SNB-19
BT-549 = test system: BT-549

Compound	GI50 (HOP-92)	GI50 (HT-29)	GI50 (Malme-3M)	GI50 (MCF7)	GI50 (NCI-H522)	GI50 (SF-268)	GI50 (786-0)	GI50 (UO-31)	GI50 (SF-295)	GI50 (SK-OV-3)	GI50 (UACC-62)	GI50 (MDA-MB-231)	GI50 (SK-MEL-28)	GI50 (EKVX)	GI50 (NCI-H226)	GI50 (NCI/ADR-RES)	GI50 (SK-MEL-5)	GI50 (SNB-19)	GI50 (BT-549)
CCOP(=O)(OCC)C(C(=O)OC)C(=O)C(=O)Nc1cccc(O)c1 (stereo unspecified)	> 100 µM (inactive)	> 100 µM (inactive)	> 100 µM (inactive)	> 100 µM (inactive)	> 100 µM (inactive)	> 100 µM (inactive)	> 100 µM (inactive)	> 100 µM (inactive)	> 100 µM (inactive)	> 100 µM (inactive)	> 100 µM (inactive)	> 100 µM (inactive)	> 100 µM (inactive)	> 100 µM (inactive)	> 100 µM (inactive)	> 100 µM (inactive)	> 100 µM (inactive)	> 100 µM (inactive)	> 100 µM (inactive)
CCC(=O)Oc1ccc2c(c1)c(=O)c1c(NCCCN(C)C)ccc3nnn2c31	3.48 µM (inactive)	0.69 µM (active)	3.98 µM (inactive)	0.536 µM (active)	0.188 µM (active)	1.8 µM (inactive)	0.361 µM (active)	0.953 µM (active)	2.45 µM (inactive)	4.36 µM (inactive)	11.2 µM (inactive)	3.44 µM (inactive)	10.9 µM (inactive)	1.17 µM (inactive)	2.31 µM (inactive)	3.31 µM (inactive)	1.9 µM (inactive)	2.06 µM (inactive)	12.3 µM (inactive)
CCOC(=O)/C(C#N)=C/c1ccc2c(c1)CC1(C2)Cc2cc(CC)c(C(C)O)cc2C1 (stereo unspecified)	16.5 µM (inactive)	19.1 µM (inactive)	6.11 µM (inactive)	5.18 µM (inactive)	47 µM (inactive)	13 µM (inactive)	17.3 µM (inactive)	21.4 µM (inactive)	15.7 µM (inactive)	15.4 µM (inactive)	7.83 µM (inactive)	10.5 µM (inactive)	12.8 µM (inactive)	57.5 µM (inactive)	19.3 µM (inactive)	8.77 µM (inactive)	4.78 µM (inactive)	15.1 µM (inactive)	10.8 µM (inactive)
Cc1ccc(S(=O)(=O)N/N=C2\CCC3(O)CC2(C)CCC2C3CC2(C)C)cc1 (stereo unspecified)	28.4 µM (inactive)	34.4 µM (inactive)	53.2 µM (inactive)	39.6 µM (inactive)	20.9 µM (inactive)	37.4 µM (inactive)	45.3 µM (inactive)	24.4 µM (inactive)	33 µM (inactive)	37 µM (inactive)	36.6 µM (inactive)	47.8 µM (inactive)	31.1 µM (inactive)	40.1 µM (inactive)	27.4 µM (inactive)	33.7 µM (inactive)	35.6 µM (inactive)	56.6 µM (inactive)	65.3 µM (inactive)
CC(=O)c1c2c(c3ccccc3c1O)O[C@@H]1OCC[C@H]21	> 100 µM (inactive)	> 100 µM (inactive)	> 100 µM (inactive)	30 µM (inactive)	> 100 µM (inactive)	> 100 µM (inactive)	> 100 µM (inactive)	> 100 µM (inactive)	> 100 µM (inactive)	> 100 µM (inactive)	> 100 µM (inactive)	> 100 µM (inactive)	> 100 µM (inactive)	> 100 µM (inactive)	> 100 µM (inactive)	> 100 µM (inactive)	> 100 µM (inactive)	> 100 µM (inactive)	48.4 µM (inactive)
CCn1c2ccccc2c2cc(NC(=O)c3c(C)nc(O)nc3NCCNCCO)ccc21	> 100 µM (inactive)	> 100 µM (inactive)	> 100 µM (inactive)	> 100 µM (inactive)	> 100 µM (inactive)	> 100 µM (inactive)	> 100 µM (inactive)	> 100 µM (inactive)	> 100 µM (inactive)	> 100 µM (inactive)	> 100 µM (inactive)	> 100 µM (inactive)	> 100 µM (inactive)	> 100 µM (inactive)	> 100 µM (inactive)	> 100 µM (inactive)	> 100 µM (inactive)	> 100 µM (inactive)	> 100 µM (inactive)
CCc1cccc(C(C)(C)C)c1NC(=S)N/C=C(/C#N)C(N)=O	14 µM (inactive)	> 100 µM (inactive)	> 100 µM (inactive)	> 100 µM (inactive)	> 100 µM (inactive)	> 100 µM (inactive)	> 100 µM (inactive)	31.3 µM (inactive)	> 100 µM (inactive)	> 100 µM (inactive)	> 100 µM (inactive)	> 100 µM (inactive)	> 100 µM (inactive)	> 100 µM (inactive)	> 100 µM (inactive)	> 100 µM (inactive)	> 100 µM (inactive)	> 100 µM (inactive)	44.8 µM (inactive)
COc1ccc(-c2nnc(CCCCCCCCc3nnc(-c4ccc(OC)cc4)n3N)n2N)cc1	> 39.3 µM (inactive)	> 100 µM (inactive)	> 100 µM (inactive)	> 100 µM (inactive)	> 56.5 µM (inactive)	> 58.2 µM (inactive)	> 31.6 µM (inactive)	> 100 µM (inactive)	> 59.4 µM (inactive)	> 56.2 µM (inactive)	> 92 µM (inactive)	> 57.8 µM (inactive)	> 100 µM (inactive)	> 100 µM (inactive)	> 100 µM (inactive)	> 31.6 µM (inactive)	> 100 µM (inactive)	> 60.3 µM (inactive)	58.5 µM (inactive)
CC(=O)Nc1cc([As](=O)(O)O)ccc1O [ACETARSONE]	> 100 µM (inactive)	> 100 µM (inactive)	> 100 µM (inactive)	> 100 µM (inactive)	> 100 µM (inactive)	> 100 µM (inactive)	> 100 µM (inactive)	> 100 µM (inactive)	> 100 µM (inactive)	> 100 µM (inactive)	> 100 µM (inactive)	> 100 µM (inactive)	> 100 µM (inactive)	> 100 µM (inactive)	> 100 µM (inactive)	> 100 µM (inactive)	> 100 µM (inactive)	> 100 µM (inactive)	> 100 µM (inactive)
O=C(N/N=C/c1ccccc1O)c1ccccc1Nc1ccccc1C(=O)N/N=C/c1ccccc1O	2.26 µM (inactive)	0.518 µM (active)	0.29 µM (active)	0.583 µM (active)	0.277 µM (active)	0.255 µM (active)	0.214 µM (active)	0.411 µM (active)	0.975 µM (active)	3.1 µM (inactive)	1.05 µM (active)	99.3 µM (inactive)	0.182 µM (active)	0.398 µM (active)	0.403 µM (active)	1 µM (active)	0.541 µM (active)	3.41 µM (inactive)	7.03 µM (inactive)
CN(C)CCNC(=O)c1cccc2ccc(-c3ccc(O)cc3)nc12	3.03 µM (inactive)	3.13 µM (inactive)	1.05 µM (active)	0.859 µM (active)	1.36 µM (inactive)	3.92 µM (inactive)	2.63 µM (inactive)	2.39 µM (inactive)	2.13 µM (inactive)	3.01 µM (inactive)	1.39 µM (inactive)	0.959 µM (active)	3.15 µM (inactive)	8.36 µM (inactive)	1.93 µM (inactive)	5.11 µM (inactive)	1.25 µM (inactive)	1.31 µM (inactive)	6.82 µM (inactive)
CCN(CC)CCNc1ccc2ncn3c4cc(OC)c(OC)c(O)c4c(=O)c1c23	1.61 µM (inactive)	3.8 µM (inactive)	18 µM (inactive)	2.88 µM (inactive)	12.6 µM (inactive)	3.49 µM (inactive)	4.01 µM (inactive)	12.3 µM (inactive)	10.4 µM (inactive)	12.5 µM (inactive)	16.6 µM (inactive)	5.93 µM (inactive)	14.4 µM (inactive)	16 µM (inactive)	12.3 µM (inactive)	3.94 µM (inactive)	15.5 µM (inactive)	7.59 µM (inactive)	16.3 µM (inactive)
Cc1cc2c(cc1-c1cc3c(cc1C)C(C(C)C)=C(O)C(=O)/C3=C\Nc1c(C)n(C)n(-c3ccccc3)c1=O)/C(=C/Nc1c(C)n(C)n(-c3ccccc3)c1=O)C(=O)C(O)=C2C(C)C	78.2 µM (inactive)	> 100 µM (inactive)	> 100 µM (inactive)	38.8 µM (inactive)	> 100 µM (inactive)	> 100 µM (inactive)	62.1 µM (inactive)	> 100 µM (inactive)	> 100 µM (inactive)	> 100 µM (inactive)	> 100 µM (inactive)	42.1 µM (inactive)	> 100 µM (inactive)	76.9 µM (inactive)	98.2 µM (inactive)	> 100 µM (inactive)	49.9 µM (inactive)	> 100 µM (inactive)	> 100 µM (inactive)
Nc1nc(O)c2nc3c(nc2n1)C(=O)N(c1ccc(C(=O)O)cc1)C3	> 100 µM (inactive)	> 100 µM (inactive)	> 100 µM (inactive)	> 100 µM (inactive)	> 100 µM (inactive)	> 100 µM (inactive)	> 100 µM (inactive)	> 100 µM (inactive)	> 100 µM (inactive)	> 100 µM (inactive)	> 100 µM (inactive)	> 100 µM (inactive)	> 100 µM (inactive)	> 100 µM (inactive)	> 100 µM (inactive)	> 100 µM (inactive)	> 100 µM (inactive)	> 100 µM (inactive)	> 100 µM (inactive)
